Reference: US11959122B2

Columns and labels:
[1] = system: microbial flora in the target watershed; test: minimum inhibitory concentration (MIC) by EUCAST database and drug resistance prediction invalid concentration PNECr; conditions: PNECR=MIC/AF, AF 10
Text: Minimum inhibitory concentration (MIC) of some antibiotics and drug resistance prediction invalid concentration (PNECr) of microbes

[2] = system: microbial flora in the target watershed; conditions: determined by EUCAST database; unit assumed; cited from earlier work
[3] = system: microbial flora in the target watershed (environmental microbes, resistant genes); conditions: logistic model fitting of S against concentration; target solution DNA
[4] = buffer; cited from earlier work

| Compound | PNECr [1] | Observed MIC [2] [µg/mL] | MSC value (antibiotic concentration at S=0) [3] [µg/L] | t1/2 [4] [days] |
| --- | --- | --- | --- | --- |
| NCC[C@H](O)C(=O)N[C@@H]1C[C@H](N)[C@@H](O[C@H]2O[C@H](CN)[C@@H](O)[C@H](O)[C@H]2O)[C@H](O)[C@H]1O[C@H]1O[C@H](CO)[C@@H](O)[C@H](N)[C@H]1O [Amikacin] | 25 | 250 |  |  |
| C[C@@H]1[C@H](O)[C@@H](C)/C=C/C=C/C=C/C=C/C=C/C=C/C=C/[C@H](O[C@@H]2O[C@H](C)[C@@H](O)[C@H](N)[C@@H]2O)C[C@@H]2O[C@](O)(C[C@@H](O)C[C@@H](O)[C@H](O)CC[C@@H](O)C[C@@H](O)CC(=O)O[C@H]1C)C[C@H](O)[C@H]2C(=O)O [Amphotericin B] | 0.8 | 8 |  |  |
| COC[C@H]1O[C@@H](OC2OC[C@@H]3O[C@]4(O[C@H]3[C@H]2OC(=O)C(C)C)O[C@H](C)[C@@](O)(C(C)=O)[C@@H]2OCO[C@H]24)[C@@H](OC)[C@@H](O)[C@@H]1O[C@@H]1O[C@H](C)[C@H](OC)[C@H](O[C@H]2C[C@@]3(C)OC4(C[C@@H](O)[C@H](O[C@H]5C[C@@H](O)[C@H](OC(=O)c6c(C)c(Cl)c(O)c(Cl)c6OC)[C@@H](C)O5)[C@@H](C)O4)O[C@@H]3[C@@H](C)O2)[C@H]1O (stereo partly shown) [Avilamycin] | 100 | 1000 |  |  |
| C[C@@H](O)[C@H]1C(=O)N2C(C(=O)O)=C(S[C@@H]3CN[C@H](CNS(N)(=O)=O)C3)[C@H](C)[C@H]12 [Doripenan] | 0.2 | 2 |  |  |
| O=C1CN(/N=C/c2ccc([N+](=O)[O-])o2)C(=O)N1 [Furantoin] | 400 | 4000 |  |  |
| CC1(C)S[C@@H]2[C@H](/N=C/N3CCCCCC3)C(=O)N2[C@H]1C(=O)O [Messilinan] | 6.4 | 64 |  |  |
| CN(C)[C@@H]1C(O)=C(C(N)=O)C(=O)[C@@]2(O)C(O)=C3C(=O)c4c(O)cccc4[C@@](C)(O)[C@H]3[C@H](O)[C@@H]12 [Oxytetracycline] | 12.5 | 125 |  |  |
| CN(C)[C@@H]1C(O)=C(C(N)=O)C(=O)[C@@]2(O)C(O)=C3C(=O)c4c(O)cccc4[C@@](C)(O)[C@H]3C[C@@H]12 [Tetracycline] |  |  | ~11.39 |  |
| CS(=O)(=O)c1ccc([C@@H](O)[C@@H](CO)NC(=O)C(Cl)Cl)cc1 [Thiamphenicol] | 50 | 500 |  |  |
| CC1(C)S[C@@H]2[C@H](NC(=O)[C@H](C(=O)O)c3ccsc3)C(=O)N2[C@H]1C(=O)O [Ticarcillin] | 25 | 250 |  |  |
| CN(C)c1cc(NC(=O)CNC(C)(C)C)c(O)c2c1C[C@H]1C[C@H]3[C@H](N(C)C)C(O)=C(C(N)=O)C(=O)[C@@]3(O)C(O)=C1C2=O [Tigecycline] |  | 16 |  |  |
| NC[C@H]1O[C@H](O[C@H]2[C@H](O)[C@@H](O[C@H]3O[C@H](CO)[C@@H](O)[C@H](N)[C@H]3O)[C@H](N)C[C@@H]2N)[C@H](N)C[C@@H]1O [Tobramycin] |  | 16 |  |  |
| N[C@@H]1[C@H]2CN(c3nc4c(cc3F)c(=O)c(C(=O)O)cn4-c3ccc(F)cc3F)C[C@@H]12 [Travafloxacin] | 0.8 | 8 |  |  |
| COc1cc(Cc2cnc(N)nc2N)cc(OC)c1OC [Trimethoprim] |  | 16 |  |  |
| CC[C@H]1OC(=O)C[C@@H](O)[C@H](C)[C@@H](O[C@@H]2O[C@H](C)[C@@H](O[C@H]3C[C@@](C)(O)[C@@H](O)[C@H](C)O3)[C@H](N(C)C)[C@H]2O)[C@@H](CC=O)C[C@@H](C)C(=O)/C=C/C(C)=C/[C@@H]1CO[C@@H]1O[C@H](C)[C@@H](O)[C@@H](OC)[C@H]1OC [Tylosin] | 200 | 2000 |  |  |
| C[C@@H](c1ncncc1F)[C@](O)(Cn1cncn1)c1ccc(F)cc1F [Voriconazole] |  | 2 |  |  |
| Bacitracin | 200 | 2000 |  |  |
| Capreomycin | 100 | 1000 |  |  |
| Cefadroxil | 12.5 | 125 |  |  |
| Cefalexin | 25 | 250 |  |  |
| Chloramphenicol | 12.5 | 125 |  |  |
| Colistin | 6.4 | 64 |  |  |
| Dehydrated erythromycin |  |  |  | 365 |
| Ethambutol | 100 | 1000 |  |  |
| FLORFENICOL | 12.5 | 125 |  |  |

| Compound | PNECr [1] | Observed MIC [2] [µg/mL] | MSC value (antibiotic concentration at S=0) [3] [µg/L] | t1/2 [4] [days] |
| --- | --- | --- | --- | --- |
| Fosfomycin | 12.5 | 125 |  |  |
| Fusiform acid | 3.2 | 32 |  |  |
| Gentamicin | 1.6 | 16 |  |  |
| Kanamycin | 12.5 | 125 |  |  |
| Lincomycin | 50 | 500 |  |  |
| Linezolid | 12.5 | 125 |  |  |
| Lolakabiv | 12.5 | 125 |  |  |
| Mikafenjin | 0.4 | 4 |  |  |
| Nalidixic acid | 50 | 500 |  |  |
| Narasin | 12.5 | 125 |  |  |
| Neomycin | 12.5 | 125 |  |  |
| Pefloxacin | 400 | 4000 |  |  |
| Penicillin | 0.4 | 4 |  |  |
| Quinupustine | 0.4 | 4 |  |  |
| Sparfloxacin | 50 | 500 |  |  |
| Spiramycin | 200 | 2000 |  |  |
| Streptomycin | 12.5 | 125 |  |  |
| Sulbactam sodium | 25 | 250 |  |  |
| Sulfamethoxazole | 100 | 1000 |  |  |
| Teicoplanin | 100 | 1000 |  |  |
| Tiamulin | 50 | 500 |  |  |
| Tilmicosin | 25 | 250 |  |  |
| Vancomycin | 12.5 | 125 |  |  |
| Viomycin | 100 | 1000 |  |  |
| Virginiamycin | 25 | 250 |  |  |
